Tested on: INS-1 cells
Assay: Cell counting analysis (trypan blue) of living INS-1 cells
Type: cell-based, rat
Details: for decrease in survival of INS-1 cells compared to control: treated alone; for decrease in INS-1 cell survival compared to the control: FIG. 4
Description: The rat insulin-secreting cell line INS-1 was maintained in RPMI-1640 medium containing 10% heat-inactivated FBS (fetal bovine serum), 100 units/ml of penicillin and 100 μg/ml of streptomycin at 37° C. under the conditions of 95% humidity and 5% CO2.
One day before treatment with reagent or CLCE, INS-1 cells were cultured in a 24-well plate at a concentration of 1×10^5 cells/well in a volume of 500 μL. The INS-1 cells were treated with the indicated concentrations of reagent (Dex, LY294002, IL-1β, STZ, TG or TN) and/or CLCE for the indicated time. At each point of time, the cells were stained with trypan blue dye, and the living INS-1 cells were counted under a microscope. The cell counting was repeated three times. Data were expressed as the mean of three independent experiments.

| Molecule | decrease in survival of INS-1 cells compared to control (FIG. 3) | decrease in INS-1 cell survival compared to the control (treated alone for 24 hours) | further results |
| --- | --- | --- | --- |
| C[C@@H]1C[C@H]2[C@@H]3CCC4=CC(=O)C=C[C@]4(C)[C@@]3(F)[C@@H](O)C[C@]2(C)[C@@]1(O)C(=O)CO [Dex, dexamethasone] | about 55% |  | decrease in survival rate of INS-1 cells (treated alone for 24 hours, FIG. 1A): about 50% |
| O=c1cc(N2CCOCC2)oc2c(-c3ccccc3)cccc12 [LY294002] | about 24% |  | degree of the decrease in survival of INS-1 cells (combination of Dex and LY294002, FIG. 3): 75% |
| tunicamycin [TN] |  | ~50% |  |
| CN(N=O)C(=O)N[C@H]1C(O)O[C@H](CO)[C@@H](O)[C@@H]1O (mixture of isomers) [STZ, streptozotocin] |  | ~82% |  |
| C/C=C(/C)C(=O)O[C@H]1C(C)=C2[C@H]([C@@H]1OC(=O)CCCCCCC)[C@@](C)(OC(C)=O)C[C@H](OC(=O)CCC)[C@@]1(O)[C@H]2OC(=O)[C@@]1(C)O [TG, thapsigargin] |  | ~88% |  |
| interleukin-1β [IL-1β] |  | about 45% |  |

Source: patent US20140193455A1, “PHARMACEUTICAL COMPOSITION FOR PREVENTION OR TREATMENT OF STEROID-INDUCED DIABETES AND HEALTH FUNCTIONAL FOOD” (priority 2013, published 2014)
